# According to patent US6310247A, “7-aryl-6(Z)-heptatrienoic acid retinamides” (Hoffmann-LA Roche Inc., priority 1999, dated 2001):
# “Also recorded” adds a separate entry of the source. Where two headings read alike, the source gives them in different places.
# Assays:
# MDA-435 cells = assay: Apoptosis: cell death detection by ELISA, MDA-435; format: cell-based, human; conditions: for fold induction at 1 µM / fold induction at 3.3 µM / fold induction at 10 µM: Homo sapiens; for fold induction at 10 µM / Fold induction of apoptosis, internal positive control (cont.): 10 uM
# Experimental: ER- breast carcinoma, human (MDA-435) obtained from Dr. Janet Price, MDA Cancer Center, Houston, Tex., were grown in Gibco's RPMI 1640 media supplemented with sodium pyruvate, 10% FBS and 13 ng/mL gentamicin. Cells were incubated at 37° C., 4.5% CO2 and 95.5% humidified air.
# (§1) 2. Apoptosis: Cell death detection by ELISA:
# (§2) Compounds of formula 1 were tested for the ability to cause apoptosis as follows:
# (§3) Cells and media were collected, cells were pelleted, resuspended in 100 μl lysis buffer (50 mM Tris-Cl (pH=8.0), 20 mM EDTA, 1% NP-40e) and incubated 30 minutes at 4° C. to lyse. Cell debris was spun down and an aliquot (30 μl) of the […] was removed for protein determination and stored at -20° C. An additional 280 μl of lysis buffer, was added, mixed thoroughly and spun down at 14,000 RPM for 10 minutes at 4° C. An aliquot was removed (180 μl) and the sample was stored at -20° C. until testing.
# (§4) A commercially available apoptosis detection kit, obtained from Boehringer Mannheim (Cat. No. 1544-674), was used as per the directions provided with the kit (Cell Death Detection ELISA). However, the protocol was modified in that a 1:40 to 1:100 dilution of sample was prepared, rather than the recommended 1:10 dilution, due to the increase in cell number used to prepare the sample extract and the subsequent increase in ELISA reactivity. The assay measures apoptosis by quantifying the amount of nucleosomal fragmentation from the extracts of cells treated with the test compounds (samples). These nucleosomal fragments, generated by the activation of endonucleases, are a known downstream effector of apoptosis. Antihistone antibodies are used to fix any nucleosomal fragments in the sample to the well of the microtiter plates. The sample is then incubated with anti-DNA antibodies conjugated to peroxidase and subsequently incubated with the peroxidase substrate, ABTS. The resulting colorimetric change is measured spectrophotometrically at 405/490nm.
# (§5) The total protein content of each sample was determined for the purpose of normalizing the ELISA values to amount of sample loaded. Microplate assay protocol described in the instruction manual, for (Biorad DC Assay, Cat.#500-0116) section 5.2. The protein concentrations were calculated based upon a linear regression curve.
# (§6) d) ELISA assay calculations
# (§7) Relative ELISA O.D. readings are determined by subtracting the ELISA plate background O.D. value. No drug control O.D. value (lysis buffer only) was subtracted from sample O.D. value. A correction coefficient (CC), based on the sample protein concentration compared to no drug control, was determined to correct the sample O.D. following subtraction of the background O.D. (BCS O.D.). The fold increase over no drug control is calculated and normalized to the total protein concentration of the samples by multiplying against the correction coefficient.
# (§8) To determine the fold increase in ELISA O.D., obtain the following O.D. measurements:
# (§9) ELISA plate background--lysis buffer only (EPB);
# (§10) no drug treated control--cell sample treated with DMSO (NDT);
# (§11) drug treated sample--cell sample treated with a compound of formula 1 (DT) Subtract EPB from NDT (NDT-EPB) and DT (DT-EPB). The fold increase of the treated over the control is then (DT-EPB)/(NDT-EPB).
# (§12) To determine the total protein concentration of the samples, obtain the total protein concentration in mg/ul calculated using standard linear regression formula (y=mx+b) based on BSA standards. B=ELISA background. Protein concentration (PC)(mg/ml)=(sample absorbance-b)/x.
# (§13) Correction coefficient (cc) is (NDT)(PC)/(DT)(PC).
# (§14) Determine fold increase of ELISA (FT) normalized to total PC:
# (§15) nDT is DT×cc (which is DT O.D. normalized to PC)
# (§16) nNDT is NDT×cc (which is NDT O.D. normalized to PC)
# (§17) FI normalized to PC is nDT/nNDT.
# ZR-75-1 cells = assay: Apoptosis: cell death detection by ELISA, ZR-75-1; format: cell-based, human; conditions: for fold induction at 1 µM / fold induction at 3.3 µM / fold induction at 10 µM: Homo sapiens
# Experimental: ER+ breast carcinoma, human (ZR-75-1) obtained from ATCC (CRL 1500), were grown in Gibco's RPMI 1640 media supplemented with sodium pyruvate, 10% FBS and 13 ng/mL gentamicin. Cells were incubated at 37° C., 4.5% CO2 and 95.5% humidified air.
# as §1, §2, §3, §4, §5, §6, §7, §8, §9, §10, §11, §12, §13, §14, §15, §16, §17
# [1] = test system: ER+ and ER- breast carcinoma cells; assay: Induction of apoptosis in ER+ and ER- carcinoma cells (statements in words); format: cell-based, human
# Experimental: as §1, §2, §3
# A commercially available apoptosis detection kit, obtained from Boehringer Mannheim (Cat. No. 1544-674), was used as per the directions provided with the kit (Cell Death Detection ELISA). […] The assay measures apoptosis by quantifying the amount of nucleosomal fragmentation from the extracts of cells treated with the test compounds (samples). […] The resulting colorimetric change is measured spectrophotometrically at 405/490nm.
# The total protein content of each sample was determined for the purpose of normalizing the ELISA values to amount of sample loaded. […] The protein concentrations were calculated based upon a linear regression curve. […]
# as §7, with “No drug control O.D. value (lysis buffer only) was subtracted from sample O.D. value.” left out, “coefficient. […]” for “coefficient.”
# To determine the total protein concentration of the samples, obtain the total protein concentration in mg/ul calculated using standard linear regression formula (y=mx+b) based on BSA standards. […] Protein concentration (PC)(mg/ml)=(sample absorbance-b)/x. […]
# tumor cells = conditions: cited from earlier work; for Differentiation of certain tumor cells (in words): in vitro
# tumors = conditions: cited from earlier work
# [2] = cited from earlier work
# [3] = test system: ER+ and ER- breast carcinoma cells; conditions: cited from earlier work
# [4] = test system: retinoic acid X α, β and γ receptors (RXR); conditions: cited from earlier work
# RAR α, β and γ receptors = conditions: cited from earlier work
# human carcinoma cells = conditions: in vitro; cited from earlier work
# RKO cells = assay: Apoptosis: cell death detection by ELISA, RKO (colorectal carcinoma); format: cell-based, human; conditions: Homo sapiens, RKO, 10 uM, read-out: Fold induction of apoptosis, internal positive control (cont.)
# Experimental: Colorectal carcinoma, human (RKO) obtained from Dr. Bernie Vogelstein, were grown in Gibco's Delbecco Minimum Essential media (DMEM), high glucose, supplemented with sodium pyruvate, 10% FBS and 13 ng/mL gentamicin. Cells were incubated at 37° C., 4.5% CO2 and 95.5% humidified air.
# as §1, §2, §3, §4, §5, §6, §7, §8, §9, §10, §11, §12, §13, §14, §15, §16, §17
# H1299 cells = assay: Apoptosis: cell death detection by ELISA, H1299 (lung large cell carcinoma); format: cell-based; conditions: Homo sapiens, NCI-H1299, 10 uM, read-out: Fold induction of apoptosis, internal positive control (cont.)
# Experimental: Lung, large cell carcinoma, human (H1299), obtained from ATCC (CRL-5803), were grown in Gibco's Delbecco Minimum Essential media (DMEM), high glucose, supplemented with sodium pyruvate, 10% FBS and 13 ng/mL gentamicin. Cells were incubated at 37° C., 4.5% CO2 and 95.5% humidified air.
# as §1, §2, §3, §4, §5, §6, §7, §8, §9, §10, §11, §12, §13, §14, §15, §16, §17
# [5] = MDA435, 24 h, 24 hrs, read-out: Fold induction of apoptosis compared to no drug control
# [6] = MDA435, 48 h, 48 hrs, read-out: Fold induction of apoptosis compared to no drug control
# [7] = MDA435, 72 h, 72 hrs, read-out: Fold induction of apoptosis compared to no drug control
# [8] = ZR-75-1, 24 h, 24 hrs, read-out: Fold induction of apoptosis compared to no drug control
# [9] = ZR-75-1, 48 h, 48 hrs, read-out: Fold induction of apoptosis compared to no drug control
# [10] = ZR-75-1, 72 h, 72 hrs, read-out: Fold induction of apoptosis compared to no drug control
compound,measurement,setting,value
"C/C(=C/C=C/C(C)=C/C(=O)O)c1cc(C(F)(F)F)cc(C(F)(F)F)c1 [(2E,4E,6Z)-7-[3,5-bis(trifluoromethyl)phenyl]-3,7-dimethyl-2,4,6-heptatrienoic acid]",fold induction at 1 µM,MDA-435 cells; [5],1
same,fold induction at 3.3 µM,MDA-435 cells; [5],1
same,fold induction at 10 µM,MDA-435 cells; [5],1
same,fold induction at 1 µM,MDA-435 cells; [6],1
same,fold induction at 3.3 µM,MDA-435 cells; [6],1
same,fold induction at 10 µM,MDA-435 cells; [6],1
same,fold induction at 1 µM,MDA-435 cells; [7],1
same,fold induction at 3.3 µM,MDA-435 cells; [7],1
same,fold induction at 10 µM,MDA-435 cells; [7],2
same,fold induction at 1 µM,ZR-75-1 cells; [8],1
same,fold induction at 3.3 µM,ZR-75-1 cells; [8],1
same,fold induction at 10 µM,"ZR-75-1 cells; ZR-75-1, 24 h, 24 hrs, 10 uM, read-out: Fold induction of apoptosis compared to no drug control",1
same,fold induction at 1 µM,ZR-75-1 cells; [9],1
same,fold induction at 3.3 µM,ZR-75-1 cells; [9],1
same,fold induction at 10 µM,"ZR-75-1 cells; ZR-75-1, 48 h, 48 hrs, 10 uM, read-out: Fold induction of apoptosis compared to no drug control",1
same,fold induction at 1 µM,ZR-75-1 cells; [10],1
same,fold induction at 3.3 µM,ZR-75-1 cells; [10],1
same,fold induction at 10 µM,"ZR-75-1 cells; ZR-75-1, 72 h, 72 hrs, 10 uM, read-out: Fold induction of apoptosis compared to no drug control",2
same,Induction of apoptosis (in words),"[1]; 72 h, compared with the corresponding amide",induces considerably lower amounts apoptosis only after 72 h
same,Activity against ER- and ER+ carcinoma cells (induction of apoptosis),[1]; ER- and ER+ carcinoma cells,inactive
"CC1=C(/C=C/C(C)=C/C=C/C(C)=C/C(=O)Nc2ccc(O)cc2)C(C)(C)CCC1 [4-HPR, all trans 4-hydroxyphenyl retinamide]",Induction of apoptosis in retinoid-resistant cells (in words),tumor cells; cells resistant to retinoids that activate RARs efficiently,effective in inducing apoptosis
same,Growth inhibition and apoptosis in other tumor cell types (in words),tumor cells; including lung carcinoma cell and hematopoetic malignancies,inhibit cell growth and to induce apoptosis
same,Chemopreventative activity (in words),tumors; against a number of malignancies,potent chemopreventative agent
same,Tumor regression (in words),tumors; in vivo,capable of tumor regression in vivo
same,Effect on tumor formation and tumor growth (in words),tumors; via apoptosis,inhibit tumor formation and tumor growth via apoptosis
same,Major toxicity seen in the clinic,[2],night vision impairment
same,Growth inhibition and apoptosis in breast carcinoma cells (in words),[3],capable of inhibiting cell growth and inducing apoptosis; also recorded: appears to induce apoptosis and cause inhibition of cell growth
CC1=C(/C=C/C(C)=C/C=C/C(C)=C/C(=O)O)C(C)(C)CCC1 [All-trans RA],Ability to induce apoptosis (in words),tumor cells,very limited
same,Differentiation of certain tumor cells (in words),tumor cells,cause differentiation of certain tumor cells in vitro
CC1=C(/C=C/C(C)=C/C=C/C(C)=C\C(=O)O)C(C)(C)CCC1 [13-cis RA],Ability to induce apoptosis (in words),tumor cells,very limited
same,Differentiation of certain tumor cells (in words),tumor cells,cause differentiation of certain tumor cells in vitro
CC1=C(/C=C/C(C)=C\C=C\C(C)=C\C(=O)O)C(C)(C)CCC1 [9-cis RA],Tumor regression (in words),tumors; 9-cis RA and its analogs,cause tumor regression
same,Binding to RXR (in words),[4],bind
same,Binding to RAR (in words),"RAR α, β and γ receptors",bind
O=c1[nH]cc(F)c(=O)[nH]1 [5FU],Induction of apoptosis in human carcinoma cells (in words),human carcinoma cells,induce apoptosis
"CC1=C(/C=C/C(C)=C\C=C\C(C)=C\C(=O)Nc2ccc(O)cc2)C(C)(C)CCC1 [9-cis 4-HPR, reference compound]",fold induction at 10 µM,RKO cells; 24 hrs,8
same,fold induction at 10 µM,RKO cells; 48 hrs,9
same,fold induction at 10 µM,RKO cells; 72 hrs,5
same,"Fold induction of apoptosis, internal positive control (cont.)","MDA-435 cells; 48 hrs, 2880 min",10 fold
same,"Fold induction of apoptosis, internal positive control (cont.)","MDA-435 cells; 72 hrs, 4320 min",12 fold
same,fold induction at 10 µM,"MDA-435 cells; MDA435, 48 h, 48 hrs, read-out: Fold induction of apoptosis, internal positive control (cont.)",15
same,fold induction at 10 µM,"MDA-435 cells; MDA435, 72 h, 72 hrs, read-out: Fold induction of apoptosis, internal positive control (cont.)",19
same,fold induction at 10 µM,H1299 cells; 24 hrs,1
same,fold induction at 10 µM,H1299 cells; 48 hrs,15
same,fold induction at 10 µM,H1299 cells; 72 hrs,25
same,"Fold induction of apoptosis, internal positive control (cont.)","ZR-75-1 cells; 24 hrs, 10 uM, 1440 min",2 fold
same,fold induction at 10 µM,"ZR-75-1 cells; ZR-75-1, 24 h, 24 hrs, 10 uM, read-out: Fold induction of apoptosis, internal positive control (cont.)",1
COc1cccc2c1C(=O)c1c(O)c3c(c(O)c1C2=O)C[C@@](O)(C(=O)CO)C[C@@H]3O[C@H]1C[C@H](N)[C@H](O)[C@H](C)O1 [Adriamycin],Induction of apoptosis in human carcinoma cells (in words),human carcinoma cells,induce apoptosis
CC(=O)O[C@H]1C(=O)[C@@]2(C)[C@H]([C@H](OC(=O)c3ccccc3)[C@]3(O)C[C@H](OC(=O)[C@H](O)[C@@H](NC(=O)c4ccccc4)c4ccccc4)C(C)=C1C3(C)C)[C@]1(OC(C)=O)CO[C@@H]1C[C@@H]2O [Taxol],Induction of apoptosis in human carcinoma cells (in words),human carcinoma cells,induce apoptosis
